Consider 15 molecules from PMC11643516, “Design, Synthesis, Structural Insights, Tyrosinase Inhibition, and Sun Protection Factor of New Thiosemicarbazone Derivatives” (Molecules, 2024).

Counter-ions that a name gives are not always drawn. Like-named read-outs stand apart in the source and are kept apart here.

The target in one series is Tyrosinase. The conditions noted are these: L-DOPA as substrate, read-out: Tyrosinase Inhibitory Activity IC50, cited from earlier work.
The target in a further series is mushroom tyrosinase. Kind of series: Mushroom tyrosinase inhibition assay (L-DOPA, dopachrome formation at 492 nm). Type of series: biochemical. The conditions noted are these: L-DOPA substrate, pH 6.8, 37 °C; mean ± SD of triplicate experiments; read-out: IC50 against mushroom tyrosinase activity. As to the method:
Mushroom Tyr inhibition was assessed as described previously with minor modifications. […] L-DOPA was then added and the dopachrome formation was monitored at 492 nm. The measurements were taken using a FLUOstar OPTIMA (BMG Labtech, Offenburg, Germany). The IC50 value was determined by analysing dose–response curves.

Series [1] is described as follows: DPPH radical scavenging assay. The conditions noted are these: 0.1 mM DPPH, 30 min in the dark, 517 nm; mean ± SD of triplicate. As to the method: Radical scavenging activity of the thiosemicarbazone derivatives was estimated according to the previously reported method with slight modification using the stable DPPH radical. A solution of 0.1 mM DPPH radical was added to various concentrations of the compounds. The absorbance of the DPPH radical without an antioxidant, i.e., blank, was also measured. The mixture was shaken vigorously and kept at room temperature for 30 min in the dark. The absorbance of the reaction mixture was measured at 517 nm spectrophotometrically. All the determinations were performed in triplicate.
On the technique in general: Loss of DPPH colour is used to gauge radical scavenging.

A short description of series [2]: ABTS radical scavenging assay. The conditions noted are these: 734 nm after 1 min of incubation; mean ± SD of triplicate. As to the method: Samples of each compound (10 µL) were added to 990 µL of ABTS, and the reduction in the blue-green radical ABTS^+• by hydrogen-donating antioxidants was evaluated by measuring the absorbance at 734 nm after 1 min of incubation. All the measurements were carried out at least three times.

For the next series, the system named is B16 melanoma cells. Further details: method as in PMID 20863702. The conditions noted are these: read-out: Anti-Melanogenesis Activity IC50; cited from earlier work.

Usually IC50 stands for the concentration that inhibits the measured activity by half. Turning to `NC(=S)N/N=C/c1ccc([N+](=O)[O-])cc1` [Compound 3], at Tyrosinase (ref 19), the IC50 was 1900 nM.
For orientation: melting point means the temperature of the solid-liquid transition. As to `NC(=S)N/N=C/c1ccc(OS(=O)(=O)c2ccc([N+](=O)[O-])cc2)cc1` (as salt: benzenesulfonate) [TCBS2, (E)-4-((2-carbamothioylhydrazineylidene)methyl)phenyl 4-nitrolbenzenesulfonate], the melting point was in the range of 226 to 228 °C.
For the molecule `NC(=S)N/N=C/c1ccc(OS(=O)(=O)c2ccc([N+](=O)[O-])cc2)cc1` [TCBS2, (E)-4-((2-carbamothioylhydrazineylidene)methyl)phenyl 4-nitrolbenzenesulfonate], the half-maximal inhibitory concentration (IC50) on mushroom tyrosinase worked out at 660 ± 50 nM. The “DPPH (% I ± SD), percentage of inhibition of free radicals” value in series [1] worked out at 16 ± 2%. The “ABTS (% I ± SD), percentage of inhibition of free radicals” value in series [2] is given as 25 ± 4%.
Turning to `NC(=S)N/N=C/c1ccccc1` [Compound 4], the IC50 with B16 melanoma cells was > 10 µM.
As to `COc1ccc(/C=N/NC(N)=S)cc1` [Compound 2], the IC50 at Tyrosinase (ref 17) is 440 nM; at Tyrosinase (ref 20), 1480 nM.
Consider `CS(=O)(=O)Oc1ccc(/C=N/NC(N)=S)cc1` [TCMS1, (E)-4-((2-carbamothioylhydrazineylidene)methyl)phenyl methanesulfonate], for which the melting point lay in the range of 224 to 226 °C. Besides, the IC50 on mushroom tyrosinase amounted to 1600 ± 20 nM. Besides, the “DPPH (% I ± SD), percentage of inhibition of free radicals” value in series [1] stood at 20 ± 2%. Besides, the “ABTS (% I ± SD), percentage of inhibition of free radicals” value in series [2] was 42 ± 4%.
Regarding `NC(=S)N/N=C/c1ccc(OS(=O)(=O)c2ccccc2)cc1` [TCBS1, (E)-4-((2-carbamothioylhydrazineylidene)methyl)phenyl benzenesulfonate], the IC50 on mushroom tyrosinase was determined as 440 ± 30 nM. Also, the “DPPH (% I ± SD), percentage of inhibition of free radicals” value in series [1] was 26 ± 2%. The “ABTS (% I ± SD), percentage of inhibition of free radicals” value in series [2] is 39 ± 1%.
`NC(=S)N/N=C/c1ccc(OS(=O)(=O)c2ccc(Cl)cc2)cc1` (as salt: benzenesulfonate) [TCBS5, (E)-4-((2-carbamothioylhydrazineylidene)methyl)phenyl 4-chlorobenzenesulfonate] came in with a melting point of 194 to 196 °C.
`Cc1ccc(S(=O)(=O)Oc2ccc(/C=N/NC(N)=S)cc2)cc1` [TCBS4, (E)-4-((2-carbamothioylhydrazineylidene)methyl)phenyl 4-methylbenzenesulfonate] returned a melting point of 195 to 197 °C. In addition, the IC50 on mushroom tyrosinase stood at 440 ± 10 nM. Further, in series [1], the “DPPH (% I ± SD), percentage of inhibition of free radicals” value worked out at 20 ± 1%. Also, in series [2], the “ABTS (% I ± SD), percentage of inhibition of free radicals” value was found to be 30 ± 2%.
Regarding `NC(=S)N/N=C/c1ccc(OS(=O)(=O)c2ccc(Cl)cc2)cc1` [TCBS5, (E)-4-((2-carbamothioylhydrazineylidene)methyl)phenyl 4-chlorobenzenesulfonate], on mushroom tyrosinase, the IC50 was determined as 710 ± 20 nM. For the same molecule, the “DPPH (% I ± SD), percentage of inhibition of free radicals” value in series [1] was 32 ± 5%. Moreover, the “ABTS (% I ± SD), percentage of inhibition of free radicals” value in series [2] was 22 ± 2%.
For `NC(=S)N/N=C/c1ccc(Cl)cc1` [Compound 1], the 50% inhibitory concentration (IC50) on Tyrosinase (ref 17) was 840 nM; on Tyrosinase (ref 18), 1900 nM.
Molecule `COc1ccc(S(=O)(=O)Oc2ccc(/C=N/NC(N)=S)cc2)cc1` [TCBS3, (E)-4-((2-carbamothioylhydrazineylidene)methyl)phenyl 4-methoxylbenzenesulfonate] had a melting point of 154 to 156 °C. For the same molecule, at mushroom tyrosinase, the half-maximal inhibitory concentration (IC50) stood at 440 ± 10 nM. Moreover, the “DPPH (% I ± SD), percentage of inhibition of free radicals” value in series [1] was found to be 33 ± 4%. Also, the “ABTS (% I ± SD), percentage of inhibition of free radicals” value in series [2] is listed as 35 ± 1%.
In the case of `NC(=S)N/N=C/c1ccncc1` [Compound 6], the IC50 in the series on B16 melanoma cells is > 30 µM.
With `NC(=S)N/N=C/c1cccc2ccccc12` [Compound 5], in the series on B16 melanoma cells, the half-inhibitory concentration (IC50) is 1.1 µM.
Take `NC(=S)N/N=C/c1ccc(OS(=O)(=O)c2ccccc2)cc1` (as salt: benzenesulfonate) [TCBS1, (E)-4-((2-carbamothioylhydrazineylidene)methyl)phenyl benzenesulfonate]: the melting point lay in the range of 159 to 160 °C.
